Source: patent publication US20040143021A1, “Compositions and methods for improving recovery after general anesthesia” (priority 2003, published 2004)

Tests used:
sleep-deprived pilots = settings: in vivo; cited from earlier work
[1] = test system: patients scheduled for same day surgery under general anesthesia; experiment: Randomized, double blind, parallel group clinical study of modafinil vs placebo on recovery after general anesthesia (symptom evaluation by verbal analog scale); type: in vivo; settings: for Appetite, verbal analog score, mean (SD) / Ease of sleep, verbal analog score, mean (SD) / Energy, verbal analog score, mean (SD) / Exhaustion, verbal analog score, mean (SD) / Fatigue, verbal analog score, mean (SD) / Nausea, verbal analog score, mean (SD) / Reading ability, verbal analog score, mean (SD) / Restless, verbal analog score, mean (SD) / Tense, verbal analog score, mean (SD) / Worn out, verbal analog score, mean (SD): VAS 0 to 10; for Operative distress, point value: total of 60 possible points
Description: Informed consents were obtained from patients scheduled to undergo outpatient surgical procedures under general anesthesia to participate in this prospective study approved by an institutional review board. In this study, the clinical activity of modafinil to improve recovery post-anesthesia was examined in a randomized, double blind, parallel group study. Thirty-four (34) patients scheduled for same day surgery under general anesthesia participated in this prospective study. Patients were American Society of Anesthesiology physical status I-II, with a Body-Mass-Index <40 without any known significant renal, hepatic, cardiovascular, neurological, gastrointestinal, endocrine, hematologic, or pulmonary diseases as judged by the investigator. A history of epilepsy, alcoholism, or chronic use of opioids also excluded the patients from participation in this study. Patients were asked to rate various symptoms they had experienced over the previous 24-hour period using a verbal analog scale (VAS) rating of 0 to 10, as well as discrete scores when indicated. The symptom evaluation included headache, dizziness, level of energy, appetite, nausea, pain, vomiting, degree of being tense, clear-headedness, restlessness, fatigue, exhaustion, quality of sleep during the previous night, need for the help from a caregiver, the ability to read, comprehend, and communicate.
Anesthetic management of the patients was at the discretion of the attending anesthesiologist. Patients were monitored post-operatively, and cared for according to institutional standards. Once the patient was able to tolerate oral intake of liquids, the study drug (modafinil, 200 mg) or placebo was administered, randomly, with a sip of water. Patients were discharged according to institutional standards. Patients were contacted 24 (+1) hours after dosing for symptom evaluation and the same questions were asked. Patients were also asked whether the study drug they received had any beneficial effect. If the patient felt they received a benefit from the study drug they were asked to describe the benefit in their own words.
The study group included 24 female and 10 male patients (n=17 per group). The demographics of the groups are shown below in Table 1. There were no significant differences in age, height, weight, or gender distribution between the two groups.
Almost all patients had received the same type of anesthetic management including propofol, a narcotic, a volatile agent, a muscle relaxant, nitrous oxide, and oxygen. Patients had undergone mostly orthopedic or gynecological surgical procedures. Surgical procedures or the exact doses of anesthetics were not compared between the groups.
There were no significant differences in preoperative symptoms reported between the two groups (modafinil versus placebo; Table 2). As expected, patients were tenser, more restless, and less relaxed pre-operatively (in both groups). […] Operative distress was defined as a lack of energy, presence of feeling worn out, fatigue, exhaustion, mental clouding, and problem reading (comprehending) (total of 60 possible points to define the most severe Operative distress). In the modafinil group, the point value for operative distress was 10.5±6.0, preoperatively, increasing to 11.3±9.1, postoperatively. The corresponding values for operative distress in the placebo group were 13.4±11.9, pre-operatively, and 21.0±13.8, post-operatively.

[2] = test system: patients with excessive daytime sleepiness associated with narcolepsy; settings: clinical trials, 200 mg/d and 400 mg/d; cited from earlier work
[3] = post-operative minus pre-operative, modafinil 200 mg
[4] = post-operative, 24 h after modafinil 200 mg oral, n = 17
[5] = pre-operative (before dosing), n = 17
[6] = share of patients, modafinil 200 mg, n = 17

SMILES: NC(=O)C[S+]([O-])C(c1ccccc1)c1ccccc1 (stereo not drawn) [Modafinil]
- Fatigue and confusion in sleep-deprived pilots (sleep-deprived pilots): reduce fatigue and confusion
- Patients expressing themes of "alertness" and "energy" as benefit of study drug ([1]; content analysis of comments, modafinil group, p<0.05 vs 18% placebo): 71%
- Exhaustion postoperatively compared with placebo ([1]; modafinil 200 mg vs placebo): significantly less exhausted
- Fatigue postoperatively compared with placebo ([1]; modafinil 200 mg vs placebo): significantly less fatigue
- Feeling worn out postoperatively compared with placebo ([1]; modafinil 200 mg vs placebo): significantly less worn out
- Feelings of alertness and energy in patients recovering from general anesthesia ([1]; modafinil 200 mg vs placebo): significantly improved feelings of alertness, and energy
- Post-operative distress compared with placebo ([1]; modafinil 200 mg vs placebo): significantly less post-operative distress
- Patients complaining of not being able to fall asleep at night ([1]; modafinil group (n = 17), four in placebo group): one
- Patients complaining of moderate-to-severe fatigue ([1]; modafinil treatment group vs 65% placebo): 12%
- Appetite, verbal analog score, difference [1, 3]: −1.8
- Ease of sleep, verbal analog score, difference [1, 3]: −0.3
- Energy, verbal analog score, difference [1, 3]: −1.3
- Exhaustion, verbal analog score, difference [1, 3]: 0.2
- Fatigue, verbal analog score, difference [1, 3]: −0.2
- Nausea, verbal analog score, difference [1, 3]: 1.3
- Reading ability, verbal analog score, difference [1, 3]: 0.2
- Restless, verbal analog score, difference [1, 3]: −2.0
- Tense, verbal analog score, difference [1, 3]: −3.2
- Worn out, verbal analog score, difference [1, 3]: −0.6
- Appetite, verbal analog score, mean (SD) [1, 4]: 6.1 (3.8)
- Ease of sleep, verbal analog score, mean (SD) [1, 4]: 6.2 (3.6)
- Energy, verbal analog score, mean (SD) [1, 4]: 6.2 (3.5)
- Exhaustion, verbal analog score, mean (SD) [1, 4]: 2.4 (3.1)
- Fatigue, verbal analog score, mean (SD) [1, 4]: 1.4 (1.8)
- Nausea, verbal analog score, mean (SD) [1, 4]: 1.9 (3.5)
- Reading ability, verbal analog score, mean (SD) [1, 4]: 9.2 (1.6)
- Restless, verbal analog score, mean (SD) [1, 4]: 2.5 (3.0)
- Tense, verbal analog score, mean (SD) [1, 4]: 2.2 (3.2)
- Worn out, verbal analog score, mean (SD) [1, 4]: 2.9 (2.4)
- Mental limitation to resume activity, verbal analog score, mean (SD) [1, 4]: 0.6 (1.6)
- Operative distress, point value ([1]; postoperatively, modafinil 200 mg): 11.3±9.1
- Appetite, verbal analog score, mean (SD) [1, 5]: 7.9 (2.9)
- Ease of sleep, verbal analog score, mean (SD) [1, 5]: 6.5 (3.3)
- Energy, verbal analog score, mean (SD) [1, 5]: 7.5 (2.8)
- Exhaustion, verbal analog score, mean (SD) [1, 5]: 2.2 (3.3)
- Fatigue, verbal analog score, mean (SD) [1, 5]: 1.6 (2.7)
- Nausea, verbal analog score, mean (SD) [1, 5]: 0.6 (2.4)
- Reading ability, verbal analog score, mean (SD) [1, 5]: 9.0 (2.1)
- Restless, verbal analog score, mean (SD) [1, 5]: 4.5 (3.7)
- Tense, verbal analog score, mean (SD) [1, 5]: 5.4 (3.6)
- Worn out, verbal analog score, mean (SD) [1, 5]: 3.5 (3.4)
- Operative distress, point value ([1]; preoperatively, modafinil group): 10.5±6.0
- Fatigue, % with rating > 3 [1, 6]: 18%
- Fatigue, % with rating ≧ 5 [1, 6]: 12%
- Worn out, % with rating > 3 [1, 6]: 41%
- Worn out, % with rating ≧ 5 [1, 6]: 29%
- Daytime wakefulness [2]: significantly improve daytime wakefulness
- Effect on nighttime sleep [2]: without affecting nighttime sleep
